# Data from patent publication US3982931A, “N,N-di-sec.butyl-benzamide herbicides” (priority 1967, dated 1976).
# Legend:
# chenopodium album L. = assay: herbicidal activity, soil treatment one day after sowing; format: in vivo
# zea mais L. (corn) = assay: activity on agrarian species, soil treatment one day after sowing; format: in vivo
# Source text: (§1) The infesting species and the agrarian species have been indicated in Table 1 by letters, as follows:
# (§2) Method of evaluation of the results (of tests):
# (§3) 0 = no activity and no difference with respect to the control;
# (§4) 1 slight differences with respect to the control;
# (§5) 3 = considerable activity with damages that definitely impair the further development of most of the small plants; an activity degree already useful for practical purposes;
# (§6) 4 = maximum of activity with lack of germination or total containment of the small plants in the emerging stage.
# (§7) In the case of an intermediate activity between two classes of the scale, both values are recorded with the one which corresponds to the preeminent activity preceding.
# (§8) TABLE 2 reports the activity data of other compounds that fall within the class which is the object of this invention.
# (§9) TABLE 3 reports data on the herbicidal activity against infesting herbs, while TABLE 4 reports data concerning the activity on useful species of agricultural cultivations. These tables employ the criterion explained previously. The product was spread on the soil one day after sowing, in quantities of 1, 3, 6, 8, 10, 12 and 14 kg/ha.
# pisum sativum L. (pea) = assay: as above; format: in vivo
# Source text: as §1
# L = pisum sativum L. (pea)
# as §2, §3, §4, §5, §6, §7, §8
# TABLE 3 reports data on the herbicidal activity against infesting herbs, while TABLE 4 reports data concerning the activity on useful species of agricultural cultivations. These tables employ the criterion explained previously. […]
# [1] = system: amaranthus retroflexus L.; assay: herbicidal activity, soil treatment one day after sowing; format: in vivo
# solanum Lycopersicum L. = assay: activity on agrarian species, soil treatment one day after sowing; format: in vivo
# Source text: as §1
# M = solanum Lycopersicum L.
# as §2, §3, §4, §5, §6
# In the case of an intermediate activity between two classes of the scale, both values are recorded with the one which corresponds to the preeminent activity preceding. […]
# [2] = system: echinocloa crus-galli R.S.; assay: herbicidal activity, soil treatment one day after sowing; format: in vivo
# [3] = system: phaseolus vulgaris (bean); assay: activity on agrarian species, soil treatment one day after sowing; format: in vivo, Phaseolus vulgaris L.
# Source text: as §1
# I = phaseolus vulgaris (bean)
# as §2, §3, §4, §5, §6, §7, §8, §9
# artemisia vulgaris L. = assay: herbicidal activity, soil treatment one day after sowing; format: in vivo
# oryza sativa L. (rice) = assay: activity on agrarian species, soil treatment one day after sowing; format: in vivo
# Source text: as §1
# P = oryza sativa L. (rice)
# as §2, §3, §4, §5, §6, §7, §8, §9
# setaria glauca L. = assay: herbicidal activity, soil treatment one day after sowing; format: in vivo
# [4] = system: triticum vulgare L. (wheat); assay: activity on agrarian species, soil treatment one day after sowing; format: in vivo
# Source text: as §1
# N = triticum vulgare L. (wheat)
# as §2, §3, §4, §5, §6, §7, §8, §9
# vicia sativa L. = assay: herbicidal activity, soil treatment one day after sowing; format: in vivo
# Method in brief: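 Pre-emergence soil treatment one day after sowing; activity scored visually on a […] scale against untreated control, from slight difference (1) to no germination or total containment at emergence (4); intermediate activity recorded as both classes, preeminent value first.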
# avena sativa (oats) [5] = assay: activity on agrarian species, soil treatment one day after sowing; format: in vivo, Avena sativa L.
# Source text: as §1, §2, §3, §4, §5, §6, §7, §8, §9
# rice = assay: Example 1 pot test, submerged rice-field earth, granular composition; format: in vivo; conditions: maximum dose; doses 0 - 8 kg/ha
# Description: (§10) A series of pots were prepared filled with rice-field earth. Into these were then sown Echinocloa crus-galli and rice. The earth was then submerged by 10 cm of water and immediately thereafter were uniformly spread on the submerged soil granular compositions, some of them containing 2% of PA 234 and 98% of phosphorite, some others 5% of PA 234 and 95% of bentonite, in doses graduated from 0 - 8 kg of active principle per hectar. The test pots were kept in a conditioned environment at controlled temperature and photo-period.
# Echinocloa crus-galli = assay: as above; format: in vivo; conditions: 3 kg/ha of active principle
# Description: as §10
# avena sativa (oats) [6] = assay: activity on agrarian species, soil treatment one day after sowing; format: in vivo, Avena sativa L.; remark: listed apart in the source
# [7] = system: beta vulgaris L. (sugar-beet); assay: as above; format: in vivo
# Source text: as §1
# H = beta vulgaris L. (sugar-beet)
# as §2, §3, §4, §5, §6, §7, §8, §9
# useful plants = assay: phytotoxic action on useful plants (general statements); format: in vivo, useful gramineae; conditions: in words
# Source text: (§11) It is understood that all the data given herein shall have no limiting character on the object of this invention.
# infesting gramineae = assay: herbicidal action on infesting plants (general statements); format: in vivo; conditions: in words
# Source text: as §11
structure (smiles),measurement,setting,value
"CCCCN(C(=O)c1ccc(Cl)c(Cl)c1)C(C)CC (centres unmarked) [PA514, 3,4-dichloro-N-n.butyl,N-sec.butyl-benzamide]","activity on C, 0-4 scale",chenopodium album L.; 6 kg/ha,2
same,"activity on O, 0-4 scale",zea mais L. (corn); in vivo,0
same,"activity on L, 0-4 scale",pisum sativum L. (pea); in vivo,0
same,"activity on A, 0-4 scale",[1]; 6 kg/ha,1
same,"activity on M, 0-4 scale",solanum Lycopersicum L.; in vivo,0
same,"activity on D, 0-4 scale",[2]; 2 kg/ha,1
same,"activity on D, 0-4 scale",[2]; 4 kg/ha,2-3
same,"activity on D, 0-4 scale",[2]; 6 kg/ha,3
same,"activity on I, 0-4 scale",[3]; in vivo,0
same,"activity on B, 0-4 scale",artemisia vulgaris L.; 6 kg/ha,0-1
same,"activity on P, 0-4 scale",oryza sativa L. (rice); in vivo,0
same,"activity on E, 0-4 scale",setaria glauca L.; 2 kg/ha,2
same,"activity on E, 0-4 scale",setaria glauca L.; 4 kg/ha,3
same,"activity on N, 0-4 scale",[4]; in vivo,0
same,"activity on F, 0-4 scale",vicia sativa L.; 6 kg/ha,0-1
same,"activity on G, 0-4 scale",avena sativa (oats) [5]; in vivo,0
"CCC(C)N(C(=O)c1cc(Cl)cc(Cl)c1)C(C)CC (centres unmarked) [PA234, 3,5-dichloro-N,N-di-sec.butyl-benzamide]","activity on C, 0-4 scale",chenopodium album L.; 2 kg/ha,1
same,"activity on C, 0-4 scale",chenopodium album L.; 4 kg/ha,2-1
same,"activity on C, 0-4 scale",chenopodium album L.; 6 kg/ha,2
same,"activity on O, 0-4 scale",zea mais L. (corn); 2 kg/ha,0
same,"activity on O, 0-4 scale",zea mais L. (corn); 4 kg/ha,0
same,"activity on O, 0-4 scale",zea mais L. (corn); 6 kg/ha,0
same,"activity on L, 0-4 scale",pisum sativum L. (pea); 2 kg/ha,0
same,"activity on L, 0-4 scale",pisum sativum L. (pea); 4 kg/ha,0
same,"activity on L, 0-4 scale",pisum sativum L. (pea); 6 kg/ha,0
same,"activity on A, 0-4 scale",[1]; 2 kg/ha,1-2
same,"activity on A, 0-4 scale",[1]; 4 kg/ha,2
same,"activity on A, 0-4 scale",[1]; 6 kg/ha,2-3
same,damage to rice,rice,remained undamaged
same,growth of Echinocloa crus-galli,Echinocloa crus-galli,totally inhibited
same,"activity on M, 0-4 scale",solanum Lycopersicum L.; 2 kg/ha,1
same,"activity on M, 0-4 scale",solanum Lycopersicum L.; 4 kg/ha,1
same,"activity on M, 0-4 scale",solanum Lycopersicum L.; 6 kg/ha,1
same,"activity on D, 0-4 scale",[2]; 0-5 kg/ha (so in the source),2-1
same,"activity on D, 0-4 scale",[2]; 0.5 kg/ha,2-1
same,"activity on D, 0-4 scale",[2]; 1 kg/ha,2-3
same,"activity on D, 0-4 scale",[2]; 2 kg/ha,4
same,"activity on D, 0-4 scale",[2]; 4 kg/ha,4
same,"activity on D, 0-4 scale",[2]; 6 kg/ha,4
same,"activity on G, 0-4 scale",avena sativa (oats) [6]; 2 kg/ha,0
same,"activity on G, 0-4 scale",avena sativa (oats) [6]; 4 kg/ha,0
same,"activity on H, 0-4 scale",[7]; 2 kg/ha,0
same,"activity on H, 0-4 scale",[7]; 4 kg/ha,1
same,"activity on H, 0-4 scale",[7]; 6 kg/ha,1
same,"activity on I, 0-4 scale",[3]; 2 kg/ha,0
same,"activity on I, 0-4 scale",[3]; 4 kg/ha,0
same,"activity on I, 0-4 scale",[3]; 6 kg/ha,0
same,"activity on B, 0-4 scale",artemisia vulgaris L.; 2 kg/ha,0-1
same,"activity on B, 0-4 scale",artemisia vulgaris L.; 4 kg/ha,1
same,"activity on B, 0-4 scale",artemisia vulgaris L.; 6 kg/ha,1-2
same,"activity on P, 0-4 scale",oryza sativa L. (rice); 6 kg/ha,0
same,"activity on E, 0-4 scale",setaria glauca L.; 0-5 kg/ha (so in the source),3-2
same,"activity on E, 0-4 scale",setaria glauca L.; 0.5 kg/ha,3-2
same,"activity on E, 0-4 scale",setaria glauca L.; 1 kg/ha,3-4
same,"activity on E, 0-4 scale",setaria glauca L.; 2 kg/ha,4
same,"activity on E, 0-4 scale",setaria glauca L.; 4 kg/ha,4
same,"activity on E, 0-4 scale",setaria glauca L.; 6 kg/ha,4
same,"activity on N, 0-4 scale",[4]; 2 kg/ha,0
same,"activity on N, 0-4 scale",[4]; 4 kg/ha,0
same,"activity on N, 0-4 scale",[4]; 6 kg/ha,0
same,"activity on F, 0-4 scale",vicia sativa L.; 2 kg/ha,0
same,"activity on F, 0-4 scale",vicia sativa L.; 4 kg/ha,0
same,"activity on F, 0-4 scale",vicia sativa L.; 6 kg/ha,0
same,"activity on G, 0-4 scale",avena sativa (oats) [5]; 6 kg/ha,0
"CCN(CC)C(=O)c1cc(Cl)cc(Cl)c1 [PA291, 3,5-dichloro-N,N-diethyl-benzamide, reference compound]","activity on C, 0-4 scale",chenopodium album L.; 2 kg/ha,2-3
same,"activity on C, 0-4 scale",chenopodium album L.; 4 kg/ha,3
same,"activity on C, 0-4 scale",chenopodium album L.; 6 kg/ha,3
same,"activity on O, 0-4 scale",zea mais L. (corn); in vivo,4
same,"activity on A, 0-4 scale",[1]; 2 kg/ha,2-3
same,"activity on A, 0-4 scale",[1]; 4 kg/ha,3
same,"activity on A, 0-4 scale",[1]; 6 kg/ha,3-4
same,phytotoxic action on useful plants,useful plants,phytotoxic action of considerable intensity
same,herbicidal action,infesting gramineae,very active
same,"activity on D, 0-4 scale",[2]; 2 kg/ha,1-2
same,"activity on D, 0-4 scale",[2]; 4 kg/ha,2-3
same,"activity on D, 0-4 scale",[2]; 6 kg/ha,4
same,"activity on B, 0-4 scale",artemisia vulgaris L.; 2 kg/ha,3
same,"activity on B, 0-4 scale",artemisia vulgaris L.; 4 kg/ha,3-4
same,"activity on B, 0-4 scale",artemisia vulgaris L.; 6 kg/ha,4
same,"activity on P, 0-4 scale",oryza sativa L. (rice); in vivo,4
same,"activity on E, 0-4 scale",setaria glauca L.; 2 kg/ha,2-3
same,"activity on E, 0-4 scale",setaria glauca L.; 4 kg/ha,3
same,"activity on E, 0-4 scale",setaria glauca L.; 6 kg/ha,4
same,"activity on N, 0-4 scale",[4]; in vivo,4
same,"activity on F, 0-4 scale",vicia sativa L.; 2 kg/ha,2-3
same,"activity on F, 0-4 scale",vicia sativa L.; 4 kg/ha,3
same,"activity on F, 0-4 scale",vicia sativa L.; 6 kg/ha,3-4
"CCCN(CCC)C(=O)c1cc(Cl)cc(Cl)c1 [3,5-dichloro-N,N-di-n.propyl-benzamide]",phytotoxic action on useful plants,useful plants,phytotoxic action of considerable intensity
same,herbicidal action,infesting gramineae,very active
